Measured values published in ChEMBL document CHEMBL5678818, “Discovery of potent SOS1 inhibitors that block RAS activation via disruption of the RAS-SOS1 interaction” (Proc Natl Acad Sci U S A, 2019).

Assays:
[1] = species: Homo sapiens; assay: Inhibition of N-terminal GST-tagged recombinant human SOS1 N879V mutant (564 to 1049 residues) expressed in Escherichia coli assessed as reduction in KRAS G12C mutant activation at 10 uM by HTRF analysis relative to control
[2] = molecular target: Mitogen-activated protein kinase kinase kinase 4 (Homo sapiens) (UniProt Q9Y6R4); assay: Inhibition of MAP3K4 (unknown origin) assessed as residual activity at 100 nM by KINOMEscan analysis relative to control
[3] = molecular target: T1, MAP/microtubule affinity-regulating kinase 4 (Homo sapiens) (UniProt Q96L34); assay: Inhibition of MARK4 (unknown origin) assessed as residual activity at 100 nM by KINOMEscan analysis relative to control
T1 sequence (whole entry): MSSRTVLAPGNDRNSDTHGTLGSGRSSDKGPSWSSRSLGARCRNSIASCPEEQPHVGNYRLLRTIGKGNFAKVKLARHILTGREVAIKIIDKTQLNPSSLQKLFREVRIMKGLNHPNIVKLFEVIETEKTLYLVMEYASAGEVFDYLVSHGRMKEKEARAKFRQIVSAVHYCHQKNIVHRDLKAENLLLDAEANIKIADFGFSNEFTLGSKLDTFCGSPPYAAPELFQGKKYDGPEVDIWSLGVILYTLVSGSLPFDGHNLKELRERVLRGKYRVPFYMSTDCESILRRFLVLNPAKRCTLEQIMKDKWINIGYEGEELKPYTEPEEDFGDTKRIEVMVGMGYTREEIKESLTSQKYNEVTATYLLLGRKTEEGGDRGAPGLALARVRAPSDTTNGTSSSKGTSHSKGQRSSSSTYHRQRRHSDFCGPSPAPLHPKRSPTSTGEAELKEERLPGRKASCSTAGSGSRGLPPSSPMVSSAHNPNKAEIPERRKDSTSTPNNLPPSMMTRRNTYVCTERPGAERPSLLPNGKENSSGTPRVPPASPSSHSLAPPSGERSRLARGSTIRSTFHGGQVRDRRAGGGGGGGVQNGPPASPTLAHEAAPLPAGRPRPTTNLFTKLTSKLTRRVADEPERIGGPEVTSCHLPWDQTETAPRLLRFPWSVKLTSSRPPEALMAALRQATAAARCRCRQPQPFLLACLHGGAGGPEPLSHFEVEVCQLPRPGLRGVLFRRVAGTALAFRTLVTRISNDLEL

[4] = molecular target: T2, Myosin-IIIb (Homo sapiens) (UniProt Q8WXR4); assay: Inhibition of MYO3B (unknown origin) assessed as residual activity at 100 nM by KINOMEscan analysis relative to control
T2 sequence (whole entry): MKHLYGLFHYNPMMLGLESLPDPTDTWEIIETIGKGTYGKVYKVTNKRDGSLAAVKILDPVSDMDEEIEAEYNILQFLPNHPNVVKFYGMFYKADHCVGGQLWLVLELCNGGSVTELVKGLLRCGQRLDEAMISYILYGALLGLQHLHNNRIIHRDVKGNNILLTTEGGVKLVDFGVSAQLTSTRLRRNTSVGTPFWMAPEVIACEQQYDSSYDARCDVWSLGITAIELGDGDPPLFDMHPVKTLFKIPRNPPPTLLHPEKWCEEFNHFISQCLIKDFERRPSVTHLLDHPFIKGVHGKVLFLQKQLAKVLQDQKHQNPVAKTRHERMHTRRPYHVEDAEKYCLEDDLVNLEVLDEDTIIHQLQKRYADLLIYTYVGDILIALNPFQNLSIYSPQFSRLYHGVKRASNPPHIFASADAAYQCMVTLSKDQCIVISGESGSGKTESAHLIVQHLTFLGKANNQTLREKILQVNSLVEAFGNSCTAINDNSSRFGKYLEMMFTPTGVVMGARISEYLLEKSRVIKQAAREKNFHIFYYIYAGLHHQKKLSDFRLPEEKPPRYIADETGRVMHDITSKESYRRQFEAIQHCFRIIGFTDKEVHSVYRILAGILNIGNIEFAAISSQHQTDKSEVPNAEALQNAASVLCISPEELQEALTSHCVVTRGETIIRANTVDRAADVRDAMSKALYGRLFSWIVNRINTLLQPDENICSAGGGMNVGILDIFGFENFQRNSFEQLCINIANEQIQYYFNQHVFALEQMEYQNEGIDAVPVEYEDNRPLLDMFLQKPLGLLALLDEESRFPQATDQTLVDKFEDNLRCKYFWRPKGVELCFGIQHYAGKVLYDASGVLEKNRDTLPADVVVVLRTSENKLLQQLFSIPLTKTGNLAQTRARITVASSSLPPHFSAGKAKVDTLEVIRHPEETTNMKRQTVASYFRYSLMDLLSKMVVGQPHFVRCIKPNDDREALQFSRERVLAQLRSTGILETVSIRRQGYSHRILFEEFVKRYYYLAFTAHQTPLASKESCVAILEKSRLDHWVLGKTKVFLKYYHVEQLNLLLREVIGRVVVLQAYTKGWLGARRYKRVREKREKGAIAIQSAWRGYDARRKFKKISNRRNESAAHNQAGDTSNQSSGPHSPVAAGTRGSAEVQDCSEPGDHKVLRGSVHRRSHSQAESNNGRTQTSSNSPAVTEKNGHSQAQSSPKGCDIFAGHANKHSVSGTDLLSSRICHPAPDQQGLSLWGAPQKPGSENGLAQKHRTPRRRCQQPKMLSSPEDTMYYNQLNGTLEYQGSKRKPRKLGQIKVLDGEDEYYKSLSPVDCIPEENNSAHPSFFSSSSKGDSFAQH

[5] = molecular target: Peripheral plasma membrane protein CASK (Homo sapiens) (UniProt O14936); assay: Inhibition of CASK (unknown origin) assessed as residual activity at 100 nM by KINOMEscan analysis relative to control
Chain of Peripheral plasma membrane protein CASK (Homo sapiens) (O14936 whole entry, looked up): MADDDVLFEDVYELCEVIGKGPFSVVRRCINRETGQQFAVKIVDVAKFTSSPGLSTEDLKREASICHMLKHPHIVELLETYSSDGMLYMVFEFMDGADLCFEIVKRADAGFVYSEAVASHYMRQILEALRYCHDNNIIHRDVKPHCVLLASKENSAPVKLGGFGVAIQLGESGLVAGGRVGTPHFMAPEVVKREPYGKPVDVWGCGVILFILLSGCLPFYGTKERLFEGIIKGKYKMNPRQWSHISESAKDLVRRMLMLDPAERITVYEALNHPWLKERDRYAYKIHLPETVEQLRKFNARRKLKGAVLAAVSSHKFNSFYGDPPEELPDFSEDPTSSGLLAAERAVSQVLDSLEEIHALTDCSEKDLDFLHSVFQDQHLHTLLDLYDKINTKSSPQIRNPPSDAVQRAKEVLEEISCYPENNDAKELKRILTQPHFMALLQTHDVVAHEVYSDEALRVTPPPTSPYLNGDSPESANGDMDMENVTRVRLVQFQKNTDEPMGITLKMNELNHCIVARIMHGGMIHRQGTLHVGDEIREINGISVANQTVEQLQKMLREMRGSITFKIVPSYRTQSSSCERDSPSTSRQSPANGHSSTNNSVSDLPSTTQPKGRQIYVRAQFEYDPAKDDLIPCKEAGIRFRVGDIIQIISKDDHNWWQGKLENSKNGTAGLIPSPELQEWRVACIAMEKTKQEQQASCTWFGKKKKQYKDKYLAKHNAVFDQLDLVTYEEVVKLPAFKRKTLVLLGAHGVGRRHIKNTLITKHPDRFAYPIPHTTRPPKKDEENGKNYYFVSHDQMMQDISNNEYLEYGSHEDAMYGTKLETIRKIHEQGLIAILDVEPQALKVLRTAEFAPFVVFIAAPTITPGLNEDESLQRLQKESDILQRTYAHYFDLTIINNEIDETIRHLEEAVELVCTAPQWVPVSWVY

Chain of Mitogen-activated protein kinase kinase kinase 4 (Homo sapiens) (Q9Y6R4 whole entry): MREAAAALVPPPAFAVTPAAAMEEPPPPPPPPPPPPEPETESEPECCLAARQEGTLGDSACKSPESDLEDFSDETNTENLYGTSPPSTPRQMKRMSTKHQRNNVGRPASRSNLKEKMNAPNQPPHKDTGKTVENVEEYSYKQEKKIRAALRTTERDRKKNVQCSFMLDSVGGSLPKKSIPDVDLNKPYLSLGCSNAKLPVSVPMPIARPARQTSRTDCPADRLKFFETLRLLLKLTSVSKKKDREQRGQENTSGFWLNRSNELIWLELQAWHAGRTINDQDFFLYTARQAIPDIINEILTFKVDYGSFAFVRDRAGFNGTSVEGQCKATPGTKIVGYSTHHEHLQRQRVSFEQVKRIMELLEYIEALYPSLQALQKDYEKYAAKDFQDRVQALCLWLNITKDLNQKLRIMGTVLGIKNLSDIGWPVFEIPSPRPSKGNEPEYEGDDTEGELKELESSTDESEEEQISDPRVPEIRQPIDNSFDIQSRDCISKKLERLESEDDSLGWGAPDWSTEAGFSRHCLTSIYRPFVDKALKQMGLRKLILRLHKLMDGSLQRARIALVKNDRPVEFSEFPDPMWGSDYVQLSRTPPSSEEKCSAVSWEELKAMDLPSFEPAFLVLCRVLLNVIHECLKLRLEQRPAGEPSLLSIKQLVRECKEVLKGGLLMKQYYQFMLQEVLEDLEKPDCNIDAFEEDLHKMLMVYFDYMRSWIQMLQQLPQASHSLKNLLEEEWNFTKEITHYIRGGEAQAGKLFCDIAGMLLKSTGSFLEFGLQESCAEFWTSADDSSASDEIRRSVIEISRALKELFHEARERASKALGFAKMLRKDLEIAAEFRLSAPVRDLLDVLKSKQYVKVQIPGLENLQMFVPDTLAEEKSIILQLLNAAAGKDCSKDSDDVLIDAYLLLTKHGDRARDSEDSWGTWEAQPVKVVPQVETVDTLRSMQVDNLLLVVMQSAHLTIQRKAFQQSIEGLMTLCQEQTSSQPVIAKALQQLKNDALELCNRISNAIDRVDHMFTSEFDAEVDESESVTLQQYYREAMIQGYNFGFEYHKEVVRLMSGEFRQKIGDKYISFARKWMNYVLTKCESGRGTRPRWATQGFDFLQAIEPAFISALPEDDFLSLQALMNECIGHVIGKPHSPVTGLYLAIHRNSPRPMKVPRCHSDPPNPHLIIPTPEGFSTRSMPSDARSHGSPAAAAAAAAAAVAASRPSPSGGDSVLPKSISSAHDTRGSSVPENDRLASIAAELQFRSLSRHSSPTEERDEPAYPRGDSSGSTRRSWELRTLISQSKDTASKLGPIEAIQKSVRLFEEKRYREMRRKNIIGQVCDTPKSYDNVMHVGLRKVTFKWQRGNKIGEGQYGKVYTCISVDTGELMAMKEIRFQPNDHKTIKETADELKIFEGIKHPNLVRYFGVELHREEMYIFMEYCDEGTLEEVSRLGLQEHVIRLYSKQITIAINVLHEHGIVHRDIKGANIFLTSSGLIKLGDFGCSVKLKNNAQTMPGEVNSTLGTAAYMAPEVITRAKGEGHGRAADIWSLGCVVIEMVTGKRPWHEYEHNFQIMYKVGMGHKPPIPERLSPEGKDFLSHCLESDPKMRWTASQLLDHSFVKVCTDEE

COc1cc2ncnc(N[C@H](C)c3cccc4ccccc34)c2cc1OC
inhibition [1]: 51% | Activity [2]: 68% | Activity [3]: 97% | Activity [4]: 98% | Activity [5]: 72%
